Experimental data published in patent US20220313698A1, “MODULATORS OF CYSTIC FIBROSIS TRANSMEMBRANE CONDUCTANCE REGULATOR” (Vertex Pharmaceuticals Incorporated, priority 2019, published 2022).

Biological target: CFTR-mediated chloride transport (Homo sapiens, UniProt P13569)
Assay: Corrector Assay A - membrane potential dye assay (enteroid cells)
Details: for EC50: read-out: Corrector Assay A EC50, human intestinal enteroid cells, 18-24 h incubation, acute 10 μM forskolin + 300 nM ivacaftor
[1] = % of chloride transport of triple combination control (1 μM (14S)-dispiro macrocycle + 3 μM tezacaftor + 300 nM ivacaftor)

Description: Base medium (ADF+++) consisted of Advanced DMEM/Ham's F12, 2 mM Glutamax, 10 mM HEPES, 1 μg/ml penicillin/streptomycin.
Intestinal enteroid maintenance medium (IEMM) consisted of ADF+++, 1×B27 supplement, 1×N2 supplement, 1.25 mM N-acetyl cysteine, 10 mM Nicotinamide, 50 ng/mL hEGF, 10 nM Gastrin, 1 μg/mL hR-spondin-1, 100 ng/mL hNoggin, TGF-b type 1 inhibitor A-83-01, 100 μg/mL Primocin, 10 μM P38 MAPK inhibitor SB202190.
Bath 1 Buffer consisted of 1 mM MgCl2, 160 mM NaCl, 4.5 mM KCl, 10 mM HEPES, 10 mM Glucose, 2 mM CaCl2).
Chloride Free Buffer consisted of 1 mM Magnesium Gluconate, 2 mM Calcium Gluconate, 4.5 mM Potassium Gluconate, 160 mM Sodium Gluconate, 10 mM HEPES, 10 mM Glucose.
Bath 1 Dye Solution consisted of Bath 1 Buffer, 0.04% Pluronic F127, 20 μM Methyl Oxonol, 30 μM CaCCinh-A01, 30 μM Chicago Sky Blue.
Chloride Free Dye Solution consisted of Chloride Free Buffer, 0.04% Pluronic F127, 20 μM Methyl Oxonol, 30 μM CaCCinh-A01, 30 μM Chicago Sky Blue.
Chloride Free Dye Stimulation Solution consisted of Chloride Free Dye Solution, 10 μM forskolin, 100 μM IBMX, and 300 nM Ivacaftor.
Cells were recovered in cell recovery solution, collected by centrifugation at 650 rpm for 5 min at 4° C., resuspended in TryPLE and incubated for 5 min at 37° C. Cells were then collected by centrifugation at 650 rpm for 5 min at 4° C. and resuspended in IEMM containing 10 μM ROCK inhibitor (RI). The cell suspension was passed through a 40 μm cell strainer and resuspended at 1×10^6 cells/mL in IEMM containing 10 μM RI. Cells were seeded at 5000 cells/well into multi-well plates and incubated for overnight at 37° C., 95% humidity and 5% CO2 prior to assay.
Briefly, cells were washed 5 times in Bath 1 Buffer. Bath 1 Dye Solution was added and the cells were incubated for 25 min at room temperature. Following dye incubation, cells were washed 3 times in Chloride Free Dye Solution. Chloride transport was initiated by addition of Chloride Free Dye Stimulation Solution and the fluorescence signal was read for 15 min. The CFTR-mediated chloride transport for each condition was determined from the AUC of the fluorescence response to acute forskolin and 300 nM N-[2,4-bis(1,1-dimethylethyl)-5-hydroxyphenyl]-1,4-dihydro-4-oxoquinoline-3-carboxamide stimulation. Chloride transport was then expressed as a percentage of the chloride transport following treatment with 1 μM (14S)-8-[3-(2-{Dispiro[2.0.2.1]heptan-7-yl}ethoxy)-1H-pyrazol-1-yl]-12,12-dimethyl-2λ^6-thia-3,9,11,18,23-pentaazatetracyclo[17.3.1.111,14.05,10]tetracosa-1(22),5,7,9,19(23),20-hexaene-2,2,4-trione, 3 μM (R)-1-(2,2-difluorobenzo[d][1,3]dioxol-5-yl)-N-(1-(2,3-dihydroxypropyl)-6-fluoro-2-(1-hydroxy-2-methylpropan-2-yl)-1H-indol-5-yl)cyclopropanecarboxamide and 300 nM acute N-[2,4-bis(1,1-dimethylethyl)-5-hydroxyphenyl]-1,4-dihydro-4-oxoquinoline-3-carboxamide triple combination control (% Activity).

Corrector Assay A % activity [1]	EC50 [µM]	Corrector Assay A % activity (given as a number, not a class symbol, % of triple combination control) [%]	Compound
+++ (+++ is >60%)	< 1		CC(C)(C)c1ccc2c(n1)N1C[C@@H](CCC(C3CCN(C(=O)OCc4ccccc4)CC3)Nc3cccc(n3)S(=O)(=O)NC2=O)CC1(C)C (single isomer, unassigned) [Compound 255]
++ (++ is 30-60%)	< 1		CC(C)COc1cc(F)cc(-c2ccc3c(n2)N2C[C@@H](CCC(c4ccccn4)Nc4cccc(n4)S(=O)(=O)NC3=O)CC2(C)C)c1 (single isomer, unassigned) [Compound 352]
+++ (+++ is >60%)	< 1		CC(C)C1CC[C@@H]2CN(c3nc(-n4ccc(OCCC5(C(F)(F)F)CC5)n4)ccc3C(=O)NS(=O)(=O)c3cccc(n3)N1)C(C)(C)C2 (single isomer, unassigned) [Compound 357]
+++ (+++ is >60%)	< 1		CC(C)(C)c1ccc2c(n1)N1C[C@@H](CC[C@H](c3cccc(C4CCOCC4)n3)Nc3cccc(n3)S(=O)(=O)NC2=O)CC1(C)C [Compound 148]
	< 1	52.5	CC(C)(C)c1ccc2c(n1)N1C[C@@H](CC[C@@H](c3cc(C(F)(F)F)ccn3)Nc3cccc(n3)S(=O)(=O)NC2=O)CC1(C)C (single isomer, unassigned) [Compound 92]
+ (+ is <30%)	> 3		CC(C)(C)c1ccc2c(n1)N1C[C@@H](CC[C@@H](c3cccc(C4CCOCC4)n3)Nc3cccc(n3)S(=O)(=O)NC2=O)CC1(C)C [Compound 147]
++ (++ is 30-60%)	< 1		Cn1ccc(C2CC[C@@H]3CN(c4nc(C(C)(C)C)ccc4C(=O)NS(=O)(=O)c4cccc(n4)N2)C(C)(C)C3)n1 (single isomer, unassigned) [Compound 278]
+ (+ is <30%)	< 1		CC(C)(C)c1ccc2c(n1)N1C[C@@H](CC[C@@H](c3cccc(N4CCCCC4)n3)Nc3cccc(n3)S(=O)(=O)NC2=O)CC1(C)C [Compound 173]
++ (++ is 30-60%)	< 1		CC(C)(C)c1ccc2c(n1)N1C[C@@H](CCC(CCC(C3CC3)C3CC3)Nc3cccc(n3)S(=O)(=O)NC2=O)CC1(C)C (single isomer, unassigned) [Compound 52]
+++ (+++ is >60%)	< 1		Cn1nccc1C1CC[C@@H]2CN(c3nc(C(C)(C)C)ccc3C(=O)NS(=O)(=O)c3cccc(n3)N1)C(C)(C)C2 (single isomer, unassigned) [Compound 285]
+++ (+++ is >60%)	< 1		CC(C)(C)/C=C/c1ccc2c(n1)N1C[C@@H](CC[C@H](c3ccccn3)Nc3cccc(n3)S(=O)(=O)NC2=O)CC1(C)C [Compound 106, (14S,17R)-8-[(1E)-3,3-dimethylbut-1-en-1-yl]-12,12-dimethyl-17-(pyridin-2-yl)-2λ^6-thia-3,9,11,18,23-pentaazatetracyclo[17.3.1.111,14.05,10]tetracosa-1(22),5,7,9,19(23),20-hexaene-2,2,4-trione]
+++ (+++ is >60%)	< 1		CC1(C)C[C@@H]2CC[C@H](c3ccccn3)Nc3cccc(n3)S(=O)(=O)NC(=O)c3ccc(-c4c(F)cccc4Cl)nc3N1C2 [Compound 343]
++ (++ is 30-60%)	< 1		CC(C)c1cnn(-c2ccc3c(n2)N2C[C@@H](CC[C@H](c4ccccn4)Nc4cccc(n4)S(=O)(=O)NC3=O)CC2(C)C)c1 [Compound 323]
++ (++ is 30-60%)	< 1		CC(C)(C)c1ccc2c(n1)N1C[C@@H](CCC(c3cc(C(N)=O)ccn3)Nc3cccc(n3)S(=O)(=O)NC2=O)CC1(C)C (single isomer, unassigned) [Compound 83]
+++ (+++ is >60%)	< 1		CC(C)(C)c1ccc2c(n1)N1C[C@@H](CC[C@@H](C3CCOCC3)Nc3cccc(n3)S(=O)(=O)NC2=O)CC1(C)C (single isomer, unassigned) [Compound 268]
